Measured values as given in US20210220370A1, “SELECTIVE HDAC8 INHIBITORS AND THEIR USES” (HOCHSCHULE DARMSTADT, priority 2015, published 2021).
Read-outs that look alike come from different tables or passages of the source.

Legend:
[1] = system: uterine leiomyosarcoma cell line SKUT-1; experiment: Growth inhibition of cancer cell line, resazurin assay; type: cell-based, Human; conditions: Table 2, resazurin assay
[2] = system: breast cancer cell line MCF-7; experiment: as above; type: cell-based, Human; conditions: Table 2, resazurin assay
[3] = system: T cell leukemia cell line JURKAT; experiment: as above; conditions: for GI50: read-out: GI50 JURKAT
Experimental: The following tumor cell lines were used: • Human uterine leiomyosarcoma cell line SKUT-1 (ATCC® HTB114™) • Human T cell leukemia cell line JURKAT (ATCC® TIB152™) • Human breast cancer cell line MCF-7 (ATCC® HTB22™)
Cells were cultured in Dulbecco's modified Eagle's medium (DMEM) supplemented with 10% FCS.

HDAC2 = HDAC2 (Homo sapiens, UniProt Q92769); experiment: HDAC2 colorimetric assay, substrate Boc-Lys(Ac)-AMC; type: biochemical
HDAC6 = biological target: T1, HDAC6 (Homo sapiens, UniProt Q9UBN7); experiment: HDAC6 colorimetric assay, substrate Boc-Lys(Ac)-AMC; type: biochemical
T1 sequence (Q9UBN7 1-1215): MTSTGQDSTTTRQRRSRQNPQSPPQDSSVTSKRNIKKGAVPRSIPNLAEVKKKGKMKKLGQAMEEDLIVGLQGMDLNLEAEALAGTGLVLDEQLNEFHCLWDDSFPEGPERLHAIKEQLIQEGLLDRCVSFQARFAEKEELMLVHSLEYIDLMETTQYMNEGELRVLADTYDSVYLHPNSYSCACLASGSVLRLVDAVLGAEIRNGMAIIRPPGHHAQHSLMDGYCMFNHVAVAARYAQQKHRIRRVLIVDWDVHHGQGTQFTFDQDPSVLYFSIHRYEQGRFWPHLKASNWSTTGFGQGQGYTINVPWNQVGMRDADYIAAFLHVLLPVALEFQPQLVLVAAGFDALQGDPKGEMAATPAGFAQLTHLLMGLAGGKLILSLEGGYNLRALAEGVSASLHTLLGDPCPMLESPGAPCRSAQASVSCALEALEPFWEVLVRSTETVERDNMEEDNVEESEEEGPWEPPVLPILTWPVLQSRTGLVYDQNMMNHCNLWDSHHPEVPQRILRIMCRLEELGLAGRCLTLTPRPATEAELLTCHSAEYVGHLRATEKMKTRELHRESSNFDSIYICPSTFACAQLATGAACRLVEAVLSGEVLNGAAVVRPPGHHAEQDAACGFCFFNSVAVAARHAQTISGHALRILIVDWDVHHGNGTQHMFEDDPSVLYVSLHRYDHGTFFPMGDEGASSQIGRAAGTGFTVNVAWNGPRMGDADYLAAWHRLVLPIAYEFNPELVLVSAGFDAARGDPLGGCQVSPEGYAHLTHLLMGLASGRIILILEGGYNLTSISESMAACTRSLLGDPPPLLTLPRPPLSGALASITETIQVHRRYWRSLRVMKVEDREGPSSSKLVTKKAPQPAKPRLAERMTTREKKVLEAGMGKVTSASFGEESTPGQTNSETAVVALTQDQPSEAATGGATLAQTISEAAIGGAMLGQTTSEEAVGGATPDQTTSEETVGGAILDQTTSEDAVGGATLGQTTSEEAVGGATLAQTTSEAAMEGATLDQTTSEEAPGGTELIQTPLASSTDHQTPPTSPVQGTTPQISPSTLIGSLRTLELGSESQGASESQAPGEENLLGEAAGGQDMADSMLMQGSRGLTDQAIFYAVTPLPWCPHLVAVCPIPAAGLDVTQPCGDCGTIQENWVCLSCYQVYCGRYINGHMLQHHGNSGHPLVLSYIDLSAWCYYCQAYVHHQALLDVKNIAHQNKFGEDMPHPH

HDAC1 = HDAC1 (Homo sapiens, UniProt Q13547); experiment: HDAC1 colorimetric assay, substrate Boc-Lys(Ac)-AMC
Experimental: 1 nM of HDAC1 was incubated with increasing concentrations of the respective compound for 30 minutes at 30° C. The reaction was initiated by addition of 50 μM of the substrate Boc-Lys(Ac)-AMC. After an incubation of 60 minutes the reaction was stopped by addition of 20 μM SAHA and the deacetylated substrate was converted into a fluorescent product by the addition of trypsin.

HDAC5 = HDAC5 (Homo sapiens, UniProt Q9UQL6); experiment: HDAC5 colorimetric assay, substrate Boc-Lys(TFA)-AMC
HDAC7 = biological target: T2, HDAC7 (Homo sapiens, UniProt Q8WUI4); experiment: HDAC7 colorimetric assay, substrate Boc-Lys(TFA)-AMC
T2 sequence (Q8WUI4 1-952): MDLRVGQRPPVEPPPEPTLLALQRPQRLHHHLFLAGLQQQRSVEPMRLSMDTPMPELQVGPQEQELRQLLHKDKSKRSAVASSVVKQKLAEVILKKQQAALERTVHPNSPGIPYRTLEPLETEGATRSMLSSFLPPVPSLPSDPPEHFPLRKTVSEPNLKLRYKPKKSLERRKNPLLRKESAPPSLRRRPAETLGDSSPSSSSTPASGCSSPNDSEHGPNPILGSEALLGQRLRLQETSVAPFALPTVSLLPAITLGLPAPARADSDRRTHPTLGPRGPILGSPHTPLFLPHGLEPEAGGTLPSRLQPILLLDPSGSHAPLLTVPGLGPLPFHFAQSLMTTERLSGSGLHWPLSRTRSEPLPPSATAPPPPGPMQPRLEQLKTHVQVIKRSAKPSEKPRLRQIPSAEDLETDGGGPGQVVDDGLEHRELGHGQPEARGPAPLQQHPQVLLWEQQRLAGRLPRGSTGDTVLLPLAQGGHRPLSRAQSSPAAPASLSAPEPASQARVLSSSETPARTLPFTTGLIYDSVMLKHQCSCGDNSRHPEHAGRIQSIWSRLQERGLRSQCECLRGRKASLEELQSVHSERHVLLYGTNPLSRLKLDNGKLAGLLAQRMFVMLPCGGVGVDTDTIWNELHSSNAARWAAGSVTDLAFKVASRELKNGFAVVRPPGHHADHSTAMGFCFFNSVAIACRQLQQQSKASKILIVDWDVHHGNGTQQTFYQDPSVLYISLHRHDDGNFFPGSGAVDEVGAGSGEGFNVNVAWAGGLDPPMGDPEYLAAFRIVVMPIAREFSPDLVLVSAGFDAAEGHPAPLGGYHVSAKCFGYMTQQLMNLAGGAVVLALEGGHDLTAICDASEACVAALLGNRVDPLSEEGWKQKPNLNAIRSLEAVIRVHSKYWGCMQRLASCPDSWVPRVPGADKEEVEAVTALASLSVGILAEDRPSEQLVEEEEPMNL

HDAC3 = HDAC3 (Homo sapiens, UniProt O15379); experiment: HDAC3 colorimetric assay, substrate Boc-Lys(Ac)-AMC; type: biochemical; conditions: Table 1
HDAC4 = HDAC4 (Homo sapiens, UniProt P56524); type: biochemical; conditions: Table 1
HDAC8 = biological target: T3, HDAC8 (Homo sapiens, UniProt Q9BY41); experiment: HDAC8 colorimetric assay, substrate Boc-Lys(TFA)-AMC
T3 sequence (Q9BY41 1-377): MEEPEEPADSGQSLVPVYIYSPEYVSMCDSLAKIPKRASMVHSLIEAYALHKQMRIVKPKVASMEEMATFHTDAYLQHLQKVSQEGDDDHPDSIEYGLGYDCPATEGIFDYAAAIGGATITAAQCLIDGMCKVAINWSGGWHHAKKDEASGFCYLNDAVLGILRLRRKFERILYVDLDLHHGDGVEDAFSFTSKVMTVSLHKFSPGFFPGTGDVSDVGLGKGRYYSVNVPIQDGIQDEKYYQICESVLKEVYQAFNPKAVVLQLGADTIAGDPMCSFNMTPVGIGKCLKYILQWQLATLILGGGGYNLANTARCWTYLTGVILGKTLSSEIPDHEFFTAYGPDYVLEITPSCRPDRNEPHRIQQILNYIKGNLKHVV
Experimental: 1 nM of HDAC4 was incubated with increasing concentrations of the respective compound for 30 minutes at 30° C. The reaction was initiated by addition of 20 μM of the substrate Boc-Lys(trifluoracetyl)-AMC. After an incubation of 60 minutes the reaction was stopped by addition of 20 μM SAHA and the deacetylated substrate was converted into a fluorescent product by the addition of trypsin.

[4] = IC50 for HDAC1, FIG. 3, 50 μM Boc-Lys(Ac)-AMC
[5] = IC50 for HDAC7, FIG. 3, 20 μM Boc-Lys(TFA)-AMC
[6] = IC50 for HDAC8, FIG. 3, 20 μM Boc-Lys(TFA)-AMC

Chain of HDAC1 (Q13547 whole entry): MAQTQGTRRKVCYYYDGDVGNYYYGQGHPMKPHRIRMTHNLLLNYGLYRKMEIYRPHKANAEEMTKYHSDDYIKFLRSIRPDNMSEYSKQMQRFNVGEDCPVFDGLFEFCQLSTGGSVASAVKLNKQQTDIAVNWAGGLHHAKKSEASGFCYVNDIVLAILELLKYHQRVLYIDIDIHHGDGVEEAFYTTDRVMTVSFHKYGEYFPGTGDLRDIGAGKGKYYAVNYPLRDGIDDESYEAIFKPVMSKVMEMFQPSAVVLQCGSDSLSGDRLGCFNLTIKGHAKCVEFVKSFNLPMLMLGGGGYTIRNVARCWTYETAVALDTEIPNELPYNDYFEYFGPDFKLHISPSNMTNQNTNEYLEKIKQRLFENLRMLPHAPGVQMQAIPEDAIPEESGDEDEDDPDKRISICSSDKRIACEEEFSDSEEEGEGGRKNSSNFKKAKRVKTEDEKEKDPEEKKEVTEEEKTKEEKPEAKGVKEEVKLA
Chain of HDAC2 (Q92769 whole entry): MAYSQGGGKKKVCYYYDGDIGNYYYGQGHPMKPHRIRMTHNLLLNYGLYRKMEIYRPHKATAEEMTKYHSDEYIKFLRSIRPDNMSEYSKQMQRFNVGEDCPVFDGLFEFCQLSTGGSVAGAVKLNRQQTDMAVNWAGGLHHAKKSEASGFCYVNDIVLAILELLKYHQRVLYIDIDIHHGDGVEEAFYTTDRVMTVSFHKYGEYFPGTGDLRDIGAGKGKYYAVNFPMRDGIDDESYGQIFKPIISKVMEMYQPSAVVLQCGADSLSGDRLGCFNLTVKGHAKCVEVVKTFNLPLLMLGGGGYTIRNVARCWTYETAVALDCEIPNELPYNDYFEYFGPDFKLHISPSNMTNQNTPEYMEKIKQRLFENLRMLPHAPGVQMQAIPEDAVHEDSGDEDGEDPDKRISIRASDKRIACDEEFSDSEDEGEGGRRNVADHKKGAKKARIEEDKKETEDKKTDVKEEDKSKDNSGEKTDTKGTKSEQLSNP
Chain of HDAC3 (O15379 whole entry): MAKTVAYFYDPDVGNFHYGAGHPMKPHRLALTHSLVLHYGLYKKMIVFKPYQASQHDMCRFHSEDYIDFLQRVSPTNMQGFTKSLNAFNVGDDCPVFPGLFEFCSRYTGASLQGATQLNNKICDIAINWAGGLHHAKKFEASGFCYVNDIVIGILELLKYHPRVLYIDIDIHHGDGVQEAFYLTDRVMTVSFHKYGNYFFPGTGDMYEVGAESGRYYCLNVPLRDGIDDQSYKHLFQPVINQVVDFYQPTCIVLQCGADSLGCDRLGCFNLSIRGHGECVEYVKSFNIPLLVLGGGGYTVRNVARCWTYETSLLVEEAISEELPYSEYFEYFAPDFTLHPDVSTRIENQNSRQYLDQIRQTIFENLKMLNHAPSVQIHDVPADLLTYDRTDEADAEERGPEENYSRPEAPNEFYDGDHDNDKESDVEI
Chain of HDAC3 (Q9Y618 395-489 partner limits assumed): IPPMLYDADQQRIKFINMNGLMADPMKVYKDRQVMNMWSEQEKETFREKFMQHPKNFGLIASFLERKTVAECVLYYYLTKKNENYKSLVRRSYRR
Chain of HDAC4 (P56524 whole entry): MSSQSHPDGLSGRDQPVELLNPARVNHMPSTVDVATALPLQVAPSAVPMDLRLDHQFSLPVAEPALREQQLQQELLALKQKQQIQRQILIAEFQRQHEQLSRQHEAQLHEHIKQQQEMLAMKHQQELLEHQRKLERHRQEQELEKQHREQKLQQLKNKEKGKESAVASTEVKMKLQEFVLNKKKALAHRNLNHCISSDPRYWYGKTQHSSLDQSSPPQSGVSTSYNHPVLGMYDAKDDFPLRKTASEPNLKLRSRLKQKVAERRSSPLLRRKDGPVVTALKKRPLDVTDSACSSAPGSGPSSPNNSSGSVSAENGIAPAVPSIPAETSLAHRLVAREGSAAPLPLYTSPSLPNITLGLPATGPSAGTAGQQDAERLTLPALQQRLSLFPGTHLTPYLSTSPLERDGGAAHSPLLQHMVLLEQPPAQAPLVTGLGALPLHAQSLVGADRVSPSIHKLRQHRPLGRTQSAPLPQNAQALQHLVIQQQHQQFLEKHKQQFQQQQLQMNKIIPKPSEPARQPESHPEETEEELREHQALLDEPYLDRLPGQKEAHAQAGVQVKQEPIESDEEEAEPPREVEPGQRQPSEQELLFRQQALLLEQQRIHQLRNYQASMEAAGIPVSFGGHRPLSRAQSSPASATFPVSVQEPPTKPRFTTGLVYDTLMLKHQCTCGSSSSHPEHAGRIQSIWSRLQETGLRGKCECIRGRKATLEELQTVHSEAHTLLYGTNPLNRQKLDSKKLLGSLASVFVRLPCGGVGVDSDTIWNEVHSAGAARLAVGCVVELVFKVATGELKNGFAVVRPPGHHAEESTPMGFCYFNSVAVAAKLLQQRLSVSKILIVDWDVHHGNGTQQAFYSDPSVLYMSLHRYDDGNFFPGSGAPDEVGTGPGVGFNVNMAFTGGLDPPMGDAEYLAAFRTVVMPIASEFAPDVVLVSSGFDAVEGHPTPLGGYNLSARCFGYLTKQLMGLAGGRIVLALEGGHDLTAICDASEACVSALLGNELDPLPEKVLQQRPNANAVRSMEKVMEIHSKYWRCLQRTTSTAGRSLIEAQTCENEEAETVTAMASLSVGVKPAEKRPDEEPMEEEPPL
Chain of HDAC5 (Q9UQL6 whole entry): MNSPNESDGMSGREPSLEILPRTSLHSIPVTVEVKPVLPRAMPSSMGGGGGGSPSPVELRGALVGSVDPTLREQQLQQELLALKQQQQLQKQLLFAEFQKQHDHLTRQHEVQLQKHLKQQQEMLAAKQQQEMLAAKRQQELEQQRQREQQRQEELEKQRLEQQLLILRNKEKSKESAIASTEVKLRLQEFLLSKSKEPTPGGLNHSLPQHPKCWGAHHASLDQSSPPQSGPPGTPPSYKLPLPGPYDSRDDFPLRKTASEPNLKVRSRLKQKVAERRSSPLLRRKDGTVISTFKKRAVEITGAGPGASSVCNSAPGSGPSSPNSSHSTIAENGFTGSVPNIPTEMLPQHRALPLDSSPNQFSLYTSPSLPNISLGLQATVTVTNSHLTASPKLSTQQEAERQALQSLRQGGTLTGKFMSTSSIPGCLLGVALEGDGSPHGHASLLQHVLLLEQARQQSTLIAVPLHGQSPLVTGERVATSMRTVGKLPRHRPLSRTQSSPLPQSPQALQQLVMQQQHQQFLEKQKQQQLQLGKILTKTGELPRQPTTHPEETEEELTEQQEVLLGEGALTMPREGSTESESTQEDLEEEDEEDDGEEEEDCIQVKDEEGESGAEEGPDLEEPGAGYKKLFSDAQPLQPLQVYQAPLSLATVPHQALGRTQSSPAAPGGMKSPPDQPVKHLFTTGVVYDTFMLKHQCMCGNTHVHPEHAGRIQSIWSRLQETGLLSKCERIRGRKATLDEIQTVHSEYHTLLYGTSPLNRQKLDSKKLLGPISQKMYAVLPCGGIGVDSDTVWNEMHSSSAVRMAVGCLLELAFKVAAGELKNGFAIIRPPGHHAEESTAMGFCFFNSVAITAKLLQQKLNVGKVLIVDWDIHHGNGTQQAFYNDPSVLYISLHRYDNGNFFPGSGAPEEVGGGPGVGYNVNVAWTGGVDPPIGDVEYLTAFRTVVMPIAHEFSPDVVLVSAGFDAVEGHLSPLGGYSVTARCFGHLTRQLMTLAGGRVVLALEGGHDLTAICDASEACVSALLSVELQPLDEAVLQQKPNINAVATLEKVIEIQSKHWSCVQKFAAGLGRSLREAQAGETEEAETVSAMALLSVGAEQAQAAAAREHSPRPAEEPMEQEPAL

| SMILES | GI50 ([1]; Homo sapiens, SK-UT-1) [µM] | GI50 ([2]; Homo sapiens, MCF7) [µM] | GI50 ([3]; Homo sapiens, Jurkat) [µM] | IC50 (HDAC1; IC50 HDAC1, Table 1) [µM] | IC50 (HDAC2; Table 1) [µM] | IC50 (HDAC3) [µM] | IC50 (HDAC4) [µM] | IC50 (HDAC6; Table 1, read-out: IC50 HDAC6) [µM] | IC50 (HDAC5) [µM] | IC50 (HDAC7; IC50 HDAC7, Table 1) [µM] | IC50 (HDAC8; IC50 HDAC8, Table 1) [µM] | IC50 (HDAC1; [4]) [µM] | also measured |
| --- | --- | --- | --- | --- | --- | --- | --- | --- | --- | --- | --- | --- | --- |
| O=C(CCCCCCC(=O)Nc1ccccc1)NO [Compound 1, Vorinostat, reference compound] | 5.4 ± 0.4 | 3.7 ± 0.4 | 3.7 ± 0.4 | – | – | – | – | – | – | – | – | – | – |
| COc1ccc(Cn2ccc3ccc(C(=O)NO)cc32)cc1 [Compound 6, PCI-34051, reference compound] | – | – | – | – | – | – | – | – | – | – | – | – | GI50 ([1]; read-out: GI50 SK-UT-1): 136 ± 62 µM; GI50 ([2]; read-out: GI50 MCF7): 65 ± 18 µM; GI50 ([3]; Table 2, resazurin assay): 40 ± 4 µM |
| N=C1Sc2ccccc2C2=NCCCN12 [Compound 13a, 3,4-Dihydrobenzo[e]Pyrimido[1,2-c][1,3]Thiazin-6(2H)-Imine] | 736 ± 659 | > 1000 | 63 ± 8 | 3.6 ± 0.8 | – | – | – | – | – | – | – | – | IC50 (HDAC2): 32 ± 1.5 µM; IC50 (HDAC6): 6.7 ± 0.8 µM; IC50 (HDAC5; read-out: IC50 HDAC5, Table 1): 0.11 ± 0.01 µM; IC50 (HDAC7; read-out: IC50 HDAC7, Table 1): 0.22 ± 0.02 µM; GI against JURKAT cells [3]: 63 µM; times less active against JURKAT cells than on the isolated HDAC8 enzyme ([3]; ratio of JURKAT value to HDAC8 IC50): more than 5700 |
| N=C1Sc2ccccc2C2=NCCN12 [Compound 13b, 2H-Benzo[e]Imidazo[1,2-c][1,3]Thiazin-5(3H)-Imine] | 343 ± 191 | 213 ± 50 | 558 ± 342 | > 50 | > 50 | > 50 | > 50 | > 50 | > 50 | 1.3 ± 0.7 | 4.4 ± 0.8 | – | – |
| N=C1Sc2ccc(Cl)cc2C2=NCCN12 [Compound 13c, 9-Chloro-2H-Benzo[e]Imidazo[1,2-c][1,3]Thiazin-5(3H)-Imine] | 64 ± 7 | 60 ± 6 | 67 ± 8 | 21 ± 1 | > 50 | > 50 | > 50 | 32 ± 18 | 13 | 0.5 ± 0.2 | 0.18 ± 0.02 | 20 | IC50 (HDAC7; [5]): 0.51 µM; IC50 (HDAC8; [6]): 0.2 µM |
| CN(C)c1ccc2c(c1)SC(=N)N1CCCN=C21 [Compound 13d, 6-Imino-N,N-Dimethyl-2,3,4,6-Tetrahydrobenzo[e]Pyrimido[1,2-c][1,3]Thiazin-9-Imine] | 106 ± 21 | 200 ± 58 | 153 ± 28 | – | > 50 | > 50 | > 50 | 14 ± 1 | 12 | 2 ± 0.5 | 0.072 ± 0.003 | 34 | IC50 (HDAC7; [5]): 2.1 µM; IC50 (HDAC8; [6]): 0.071 µM |
| N=C1Sc2ccc(Cl)cc2C2=NCCCN12 [Compound 13e, 10-Chloro-3,4-Dihydrobenzo[e]Pyrimido[1,2-c][1,3]Thiazin-6(2H)-Imine] | > 1000 | > 1000 | 56 ± 9 | – | > 50 | 20 ± 1 | 5.7 ± 0.3 | 1.2 ± 0.4 | 1 | – | 0.0059 ± 0.0003 | 7.9 | IC50 (HDAC7; [5]): 0.08 µM; IC50 (HDAC8; [6]): 0.0055 µM |
| N=C1Sc2cc(F)ccc2C2=NCCCN12 [Compound 13f, 9-Fluoro-3,4-Dihydrobenzo[e]Pyrimido[1,2-c][1,3]Thiazin-6(2H)-Imine] | 147 ± 73 | > 1000 | 33 ± 3 | 2.9 ± 0.3 | > 50 | 10 ± 0.56 | 2.84 ± 0.13 | 9 ± 4 | 0.17 ± 0.02 | 2.6 ± 0.4 | 0.0041 ± 0.0002 | – | – |
| N=C1Sc2cc(Br)ccc2C2=NCCCN12 [Compound 13g, 9-Bromo-3,4-Dihydrobenzo[e]Pyrimido[1,2-c][1,3]Thiazin-6(2H)-Imine] | 76 ± 7 | > 1000 | 30 ± 3 | 1.7 ± 0.2 | > 50 | 6.7 ± 0.4 | 2 ± 0.1 | 2.8 ± 0.7 | 0.14 ± 0.02 | 1.7 ± 0.2 | 0.0029 ± 0.0001 | – | – |
| N=C1Sc2c(F)cccc2C2=NCCCN12 [Compound 13h, 8-Fluoro-3,4-dihydrobenzo[e]pyrimido[1,2-c][1,3]thiazin-6(2H)-imine] | > 1000 | > 1000 | 42 ± 3 | 35 ± 3 | > 50 | > 50 | 5.1 ± 0.6 | 5.2 ± 1.1 | 0.74 ± 0.16 | 5 ± 1 | 0.017 ± 0.001 | – | – |
| N=C1Sc2ccccc2C2=NCCCN12 [Compound P2742, 6H-6-Imino-(2,3,4,5-tetrahydropyrimido)[1,2-c]-[1,3]benzothiazine, reference compound] | – | – | – | – | – | – | – | – | – | – | – | 3 | IC50 (HDAC5; read-out: IC50 for HDAC5, FIG. 3, 20 μM Boc-Lys(TFA)-AMC): 0.11 µM; IC50 (HDAC7): 0.24 µM |
